Patent US20240294541A1, “COMPOUNDS CONSTITUTING C20-MODIFIED SALINOMYCIN DERIVATIVES, A METHOD FOR OBTAINING THE SAME, A COMPOSITION CONTAINING THE SAME AND A USE OF SAID COMPOUNDS” (FILECLO SPOLKA Z OGRANICZONA ODPOWIEDZIALNOSCIA, priority 2021, published 2024)

Assays:
Assay type in all cases: cell-based
[1] = tested on: NCI-H23 (human lung cancer); experiment: In vitro cytotoxicity, SRB assay, NCI-H23; details: for IC50: Homo sapiens, NCI-H23, 72 h with compound, SRB, n/a = non-active compound, read-out: NCI-H23 IC50; for NCI-H23 SI: selectivity coefficient vs normal BALB/3T3 cells
[2] = tested on: PFSK-1 (malignant primitive neuroectodermal tumour); experiment: In vitro cytotoxicity, SRB assay, PFSK-1; details: for IC50: Homo sapiens, PFSK-1, 72 h with compound, SRB, n/a = non-active compound, read-out: PFSK-1 IC50; for PFSK-1 SI: selectivity coefficient vs normal BALB/3T3 cells
[3] = tested on: A2780 (human ovarian cancer); experiment: In vitro cytotoxicity, SRB assay, A2780; details: for IC50: Homo sapiens, A2780, 72 h with compound, SRB, n/a = non-active compound, read-out: A2780 IC50; for A2780 SI: selectivity coefficient vs normal BALB/3T3 cells
[4] = tested on: A2780Cis (cisplatin-resistant human ovarian cancer); experiment: In vitro cytotoxicity, SRB assay, A2780Cis; details: for IC50: Homo sapiens, A2780cis, 72 h, read-out: A2780Cis IC50 (nM)
[5] = tested on: A375 (human melanoma); experiment: In vitro cytotoxicity, SRB assay, A375; details: for IC50: Homo sapiens, A-375, 72 h with compound, SRB, n/a = non-active compound, read-out: A375 IC50; for A375 SI: selectivity coefficient vs normal BALB/3T3 cells
[6] = tested on: Hs294T (human melanoma); experiment: cells; details: for IC50: Homo sapiens, Hs 294T, 72 h with compound, SRB, n/a = non-active compound, read-out: Hs294T IC50; for Hs294T SI: selectivity coefficient vs normal BALB/3T3 cells
[7] = tested on: PLC/PRF/5 (human liver cancer); experiment: cells; details: for IC50: Homo sapiens, PLC-PRF-5, 72 h with compound, SRB, n/a = non-active compound, read-out: PLC/PRF/5 IC50; for PLC/PRF/5 SI: selectivity coefficient vs normal BALB/3T3 cells
[8] = tested on: SNU-16 (human gastric cancer); experiment: cells; details: for IC50: Homo sapiens, SNU-16, 72 h with compound, MTT, n/a = non-active compound, read-out: SNU-16 IC50; for SNU-16 SI: selectivity coefficient vs normal BALB/3T3 cells
[9] = tested on: KG-1 (human acute myeloid leukaemia); experiment: In vitro cytotoxicity, MTT assay, KG-1; details: for IC50: Homo sapiens, 72 h with compound, MTT, n/a = non-active compound; for KG-1 SI: selectivity coefficient vs normal BALB/3T3 cells
[10] = tested on: MIA PaCa-2 (human pancreatic cancer); experiment: cells; details: for IC50: Homo sapiens, MIA PaCa-2, 72 h with compound, SRB, n/a = non-active compound, read-out: MIA PaCa-2 IC50; for MIA PaCa-2 SI: selectivity coefficient vs normal BALB/3T3 cells
[11] = tested on: BALB/3T3 (normal mouse fibroblasts); experiment: In vitro cytotoxicity, SRB assay, normal BALB/3T3 fibroblasts; details: Mus musculus, BALB/3T3; normal cells; 72 h with compound, SRB; n/a = non-active compound; read-out: BALB/3T3 IC50

Row | Structure (SMILES) | IC50 [1] [nM] | NCI-H23 SI [1] | IC50 [2] [nM] | PFSK-1 SI [2] | IC50 [3] [nM] | A2780 SI [3] | A2780Cis RI [4] | A2780Cis SI [4] | IC50 [4] [nM] | IC50 [5] [nM] | A375 SI [5] | IC50 [7] [nM] | PLC/PRF/5 SI [7] | IC50 [8] [nM] | SNU-16 SI [8] | IC50 [9] [nM] | KG-1 SI [9] | IC50 [10] [nM] | MIA PaCa-2 SI [10] | IC50 [11] [nM] | other results
1 | CC[C@@H](C(=O)[C@@H](C)[C@@H](O)[C@H](C)[C@@H]1O[C@@H]([C@@H](CC)C(=O)O)CC[C@@H]1C)[C@H]1O[C@]2(C=C[C@@H](NC(=O)Nc3ccc(F)cc3F)[C@]3(CC[C@@](C)([C@H]4CC[C@](O)(CC)[C@H](C)O4)O3)O2)[C@H](C)C[C@@H]1C [FLC-00359-1] | 148 | 0.5 | 19.4 | 3.8 | 1.62 | 45.1 | 0.7 | 65.3 | 1.12 | 228 | 0.3 | 38.6 | 1.9 | 9.57 | 7.6 | 13.1 | 5.6 | 37.7 | 1.9 | 73 | IC50 [6]: 212 nM; Hs294T SI [6]: 0.3
2 | CC[C@@H](C(=O)[C@@H](C)[C@@H](O)[C@H](C)[C@@H]1O[C@@H]([C@@H](CC)C(=O)O)CC[C@@H]1C)[C@H]1O[C@]2(C=C[C@@H](NC(=S)Nc3cc(C(F)(F)F)cc(C(F)(F)F)c3)[C@]3(CC[C@@](C)([C@H]4CC[C@](O)(CC)[C@H](C)O4)O3)O2)[C@H](C)C[C@@H]1C [FLC-00348-1] | 972 | 2.9 | 379 | 7.4 | 57 | 49.6 | 0.8 | 60.6 | 46.6 | 2590 | 1.1 | 1150 | 2.5 | 537 | 5.3 | 188 | 15.0 | 2320 | 1.2 | 2830 | IC50 [6]: 3320 nM; Hs294T SI [6]: 0.9
3 | CC[C@@H](C(=O)[C@@H](C)[C@@H](O)[C@H](C)[C@@H]1O[C@@H]([C@@H](CC)C(=O)O)CC[C@@H]1C)[C@H]1O[C@]2(C=C[C@@H](NC(=O)Nc3cc(C(F)(F)F)cc(C(F)(F)F)c3)[C@]3(CC[C@@](C)([C@H]4CC[C@](O)(CC)[C@H](C)O4)O3)O2)[C@H](C)C[C@@H]1C [FLC-00344-1 Na] | 285 | 3.7 | 112 | 9.5 | 21 | 50.5 | 1.2 | 43.8 | 24.3 | 2310 | 0.5 | 1290 | 0.8 | 106 | 10.0 | 286 | 3.7 | 383 | 2.8 | 1060 | IC50 [6]: 2570 nM; Hs294T SI [6]: 0.4
4 | CC[C@@H](C(=O)[C@@H](C)[C@@H](O)[C@H](C)[C@@H]1O[C@@H]([C@@H](CC)C(=O)O)CC[C@@H]1C)[C@H]1O[C@]2(C=C[C@@H](NC(=O)NS(=O)(=O)c3ccccc3)[C@]3(CC[C@@](C)([C@H]4CC[C@](O)(CC)[C@H](C)O4)O3)O2)[C@H](C)C[C@@H]1C [FLC-00365-1] | – | – | 6200 | – | 3480 | – | 0.9 | – | 3020 | – | – | – | – | 5830 | – | 8000 | – | – | – | – | –
5 | CCCCNC(=S)N[C@@H]1C=C[C@]2(O[C@H]([C@@H](CC)C(=O)[C@@H](C)[C@@H](O)[C@H](C)[C@@H]3O[C@@H]([C@@H](CC)C(=O)O)CC[C@@H]3C)[C@@H](C)C[C@H]2C)O[C@@]12CC[C@@](C)([C@H]1CC[C@](O)(CC)[C@H](C)O1)O2 [FLC-00368-1] | 18.4 | 7.1 | 18.6 | 7.0 | 3.54 | 37.1 | 0.8 | 44.2 | 2.97 | 89.1 | 1.5 | 74.2 | 1.8 | 16 | 8.2 | 28.2 | 4.7 | 88.1 | 1.5 | 131 | IC50 [6]: 152 nM; Hs294T SI [6]: 0.9
6 | CC[C@@H](C(=O)[C@@H](C)[C@@H](O)[C@H](C)[C@@H]1O[C@@H]([C@@H](CC)C(=O)O)CC[C@@H]1C)[C@H]1O[C@]2(C=C[C@@H](NC(=S)Nc3ccc(F)cc3)[C@]3(CC[C@@](C)([C@H]4CC[C@](O)(CC)[C@H](C)O4)O3)O2)[C@H](C)C[C@@H]1C [FLC-00340-1 Na] | 8.64 | 6.7 | 9.37 | 6.2 | 2.41 | 24.0 | 0.8 | 31.4 | 1.84 | 31.2 | 1.8 | 19.1 | 3.0 | 16.7 | 3.5 | 24.4 | 2.4 | 33.9 | 1.7 | 57.7 | –
7 | CC[C@@H](C(=O)[C@@H](C)[C@@H](O)[C@H](C)[C@@H]1O[C@@H]([C@@H](CC)C(=O)O)CC[C@@H]1C)[C@H]1O[C@]2(C=C[C@@H](NC(=O)NC(=O)C(Cl)(Cl)Cl)[C@]3(CC[C@@](C)([C@H]4CC[C@](O)(CC)[C@H](C)O4)O3)O2)[C@H](C)C[C@@H]1C [FLC-00367-1] | 682 | 7.4 | 689 | 7.4 | 322 | 15.7 | 0.8 | 19.1 | 266 | 5920 | 0.9 | 940 | 5.4 | 368 | 13.8 | 666 | 7.6 | 3220 | 1.6 | 5080 | –
8 | CCNC(=S)N[C@@H]1C=C[C@]2(O[C@H]([C@@H](CC)C(=O)[C@@H](C)[C@@H](O)[C@H](C)[C@@H]3O[C@@H]([C@@H](CC)C(=O)O)CC[C@@H]3C)[C@@H](C)C[C@H]2C)O[C@@]12CC[C@@](C)([C@H]1CC[C@](O)(CC)[C@H](C)O1)O2 [FLC-00339-1 Na] | 4.38 | 12.4 | 16.1 | 3.4 | 2.27 | 24.0 | 0.9 | 26.7 | 2.04 | 26.9 | 2.0 | 10.8 | 5.0 | 17.5 | 3.1 | 11.1 | 4.9 | 17.1 | 3.2 | 54.5 | –
9 | CC[C@@H](C(=O)[C@@H](C)[C@@H](O)[C@H](C)[C@@H]1O[C@@H]([C@@H](CC)C(=O)O)CC[C@@H]1C)[C@H]1O[C@]2(C=C[C@@H](NC(=O)NS(=O)(=O)c3ccc(C)cc3)[C@]3(CC[C@@](C)([C@H]4CC[C@](O)(CC)[C@H](C)O4)O3)O2)[C@H](C)C[C@@H]1C [FLC-00364-1] | 4790 | – | 5600 | – | 2600 | – | 0.4 | – | 1130 | – | – | 4480 | – | 5380 | – | 3700 | – | – | – | – | –
